For 2 compounds, LD99, MIC and IC50 results are on record in ChEMBL document CHEMBL5252556, “Fuligopyrones from the Fruiting Bodies of Myxomycete Fuligo septica Offer Short-Term Protection from Abiotic Stress Induced by UV Radiation” (J Nat Prod, 2023).

Some results are limits rather than exact numbers.

One series concerns Tritrichomonas foetus. Nature of the series: Anti-protozoal Tritrichomonas foetus KV-1 measured after 24 hrs. The class given is functional.
The subject of another series is Candida albicans. As to the kind of experiment: Antifungal activity against Candida albicans ATCC 10231 measured after 24 hrs. The class given is functional.
In a further series the test system is Bacillus subtilis. Nature of the series: Antibacterial activity against Bacillus subtilis ATCC 6633 measured after 24 hrs. Type of series: functional.
A short description of series [1]: Cytotoxicity against […] NFF measured after 72 hrs. The class given is toxicity, cell-based. The settings on record: NFF cells.
Series [2] can be described thus: Cytotoxicity against mouse NS-1 cells measured after 72 hrs. Type of series: toxicity, cell-based.
The subject of a further series is Eragrostis tef. As to the kind of experiment: Herbicidal activity against Eragrostis tef seed measured after 24 hrs. The settings on record: in Eragrostis tef.
The next series relates to Staphylococcus aureus. As to the kind of experiment: Antibacterial activity against Staphylococcus aureus ATCC 25923 measured after 24 hrs. The class given is functional.
In another series the test system is Saccharomyces cerevisiae. Nature of the series: Antifungal activity against Saccharomyces cerevisiae ATCC 9763 measured after 24 hrs. Type of series: functional.

In general, MIC refers to the lowest concentration found to suppress growth. A low value points to a more susceptible organism. As a reminder, the IC50 is the concentration that gives 50% inhibition. Higher therefore signals weaker potency.

In the series with Tritrichomonas foetus, `O=C(/C=C/C=C/c1ccc(O)cc1)NCCc1cc(O)c(Cl)c(=O)o1` came in with an LD99 of more than 100 µg/mL. For the same compound, the MIC against Candida albicans is more than 200 µg/mL; with Bacillus subtilis, more than 100 µg/mL; with Eragrostis tef it was more than 100 µg/mL; with Staphylococcus aureus, more than 100 µg/mL; against Saccharomyces cerevisiae it was more than 200 µg/mL. The IC50 at 72 h in series [1] and in series [2] was more than 200 µM throughout.

For the compound `O=C(/C=C/C=C/c1ccc(O)cc1)NCCc1cc(O)cc(=O)o1`, the LD99 with Tritrichomonas foetus is more than 100 µg/mL. For the same compound, the MIC is more than 200 µg/mL in the series with Candida albicans; more than 100 µg/mL in the series with Bacillus subtilis; more than 100 µg/mL in the series with Eragrostis tef; more than 100 µg/mL against Staphylococcus aureus; more than 200 µg/mL with Saccharomyces cerevisiae. The IC50 at 72 h in series [1] and in series [2] was more than 200 µM throughout.
